Assays:
Assay in all cases: biochemical
Set-up in all cases: KINOMEscan active-site competition binding, percent of control (100 = no competition)
Conditions in all cases: competition binding, percent control
MARK3 = MARK3 (Homo sapiens, UniProt P27448)
CLK1 = CLK1 (Homo sapiens, UniProt P49759)
EPHB3 = EPHB3 (Homo sapiens, UniProt P54753)
[1] = target: T1, TYK2(JH1domain-catalytic) (Homo sapiens, UniProt P29597)
T1 construct: JH1domain-catalytic

MRCKA = target: T2, MRCKA (Homo sapiens, UniProt Q5VT25)
T2 construct: gene CDC42BPA

EPHA4 = EPHA4 (Homo sapiens, UniProt P54764)
LATS2 = LATS2 (Homo sapiens, UniProt Q9NRM7)
PRKD3 = PRKD3 (Homo sapiens, UniProt O94806)
STK33 = STK33 (Homo sapiens, UniProt Q9BYT3)
MST4 = target: T3, MST4 (Homo sapiens, UniProt Q9P289)
T3 construct: gene STK26

JNK3 = target: T4, JNK3 (Homo sapiens, UniProt P53779)
T4 construct: gene MAPK10

TAOK2 = TAOK2 (Homo sapiens, UniProt Q9UL54)
HIPK1 = HIPK1 (Homo sapiens, UniProt Q86Z02)
FLT3(ITD) = FLT3(ITD) (Homo sapiens, UniProt P36888, ITD)
[2] = target: T5, RSK4(Kin.Dom.1-N-terminal) (Homo sapiens, UniProt Q9UK32)
T5 construct: gene RPS6KA6; Kin.Dom.1-N-terminal

NEK3 = NEK3 (Homo sapiens, UniProt P51956)
RIPK5 = target: T6, RIPK5 (Homo sapiens, UniProt Q6XUX3)
T6 construct: gene DSTYK

EPHA8 = EPHA8 (Homo sapiens, UniProt P29322)
PKNB(M.tuberculosis) = PKNB(M.tuberculosis) (Mycobacterium tuberculosis, UniProt P9WI81)
ALK = ALK (Homo sapiens, UniProt Q9UM73)
IKK-epsilon = target: T7, IKK-epsilon (Homo sapiens, UniProt Q14164)
T7 construct: gene IKBKE

BRK = target: T8, BRK (Homo sapiens, UniProt Q13882)
T8 construct: gene PTK6

TAOK3 = TAOK3 (Homo sapiens, UniProt Q9H2K8)

LATS2, sequence (Q9NRM7 whole entry): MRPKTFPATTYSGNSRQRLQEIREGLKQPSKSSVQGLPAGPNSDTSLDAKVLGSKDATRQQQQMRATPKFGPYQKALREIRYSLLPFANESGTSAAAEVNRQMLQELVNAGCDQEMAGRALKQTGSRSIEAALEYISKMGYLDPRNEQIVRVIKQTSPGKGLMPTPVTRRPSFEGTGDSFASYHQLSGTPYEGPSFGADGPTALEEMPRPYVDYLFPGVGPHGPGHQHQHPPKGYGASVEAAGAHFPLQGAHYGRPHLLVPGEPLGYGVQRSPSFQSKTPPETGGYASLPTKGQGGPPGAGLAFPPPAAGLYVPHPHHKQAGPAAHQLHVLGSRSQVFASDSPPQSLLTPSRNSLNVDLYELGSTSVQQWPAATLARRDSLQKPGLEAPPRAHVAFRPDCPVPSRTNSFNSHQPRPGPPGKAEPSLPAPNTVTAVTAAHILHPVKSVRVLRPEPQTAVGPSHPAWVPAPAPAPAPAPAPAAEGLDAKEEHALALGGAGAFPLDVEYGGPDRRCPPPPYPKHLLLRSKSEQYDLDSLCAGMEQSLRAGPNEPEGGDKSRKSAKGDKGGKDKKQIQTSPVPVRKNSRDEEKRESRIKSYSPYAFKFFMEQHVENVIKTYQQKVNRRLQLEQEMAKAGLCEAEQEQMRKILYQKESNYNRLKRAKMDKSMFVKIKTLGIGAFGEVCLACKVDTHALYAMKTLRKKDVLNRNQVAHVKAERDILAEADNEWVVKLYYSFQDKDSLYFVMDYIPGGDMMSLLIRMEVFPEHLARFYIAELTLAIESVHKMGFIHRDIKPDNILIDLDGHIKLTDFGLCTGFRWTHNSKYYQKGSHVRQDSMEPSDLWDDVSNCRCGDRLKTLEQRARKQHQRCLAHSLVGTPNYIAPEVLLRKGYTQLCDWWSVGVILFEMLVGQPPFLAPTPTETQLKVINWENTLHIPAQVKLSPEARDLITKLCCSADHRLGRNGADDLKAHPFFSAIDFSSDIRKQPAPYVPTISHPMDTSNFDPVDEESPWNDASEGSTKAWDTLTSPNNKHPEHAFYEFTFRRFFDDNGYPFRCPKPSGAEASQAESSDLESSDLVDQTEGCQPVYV
EPHA4, sequence (P54764 whole entry): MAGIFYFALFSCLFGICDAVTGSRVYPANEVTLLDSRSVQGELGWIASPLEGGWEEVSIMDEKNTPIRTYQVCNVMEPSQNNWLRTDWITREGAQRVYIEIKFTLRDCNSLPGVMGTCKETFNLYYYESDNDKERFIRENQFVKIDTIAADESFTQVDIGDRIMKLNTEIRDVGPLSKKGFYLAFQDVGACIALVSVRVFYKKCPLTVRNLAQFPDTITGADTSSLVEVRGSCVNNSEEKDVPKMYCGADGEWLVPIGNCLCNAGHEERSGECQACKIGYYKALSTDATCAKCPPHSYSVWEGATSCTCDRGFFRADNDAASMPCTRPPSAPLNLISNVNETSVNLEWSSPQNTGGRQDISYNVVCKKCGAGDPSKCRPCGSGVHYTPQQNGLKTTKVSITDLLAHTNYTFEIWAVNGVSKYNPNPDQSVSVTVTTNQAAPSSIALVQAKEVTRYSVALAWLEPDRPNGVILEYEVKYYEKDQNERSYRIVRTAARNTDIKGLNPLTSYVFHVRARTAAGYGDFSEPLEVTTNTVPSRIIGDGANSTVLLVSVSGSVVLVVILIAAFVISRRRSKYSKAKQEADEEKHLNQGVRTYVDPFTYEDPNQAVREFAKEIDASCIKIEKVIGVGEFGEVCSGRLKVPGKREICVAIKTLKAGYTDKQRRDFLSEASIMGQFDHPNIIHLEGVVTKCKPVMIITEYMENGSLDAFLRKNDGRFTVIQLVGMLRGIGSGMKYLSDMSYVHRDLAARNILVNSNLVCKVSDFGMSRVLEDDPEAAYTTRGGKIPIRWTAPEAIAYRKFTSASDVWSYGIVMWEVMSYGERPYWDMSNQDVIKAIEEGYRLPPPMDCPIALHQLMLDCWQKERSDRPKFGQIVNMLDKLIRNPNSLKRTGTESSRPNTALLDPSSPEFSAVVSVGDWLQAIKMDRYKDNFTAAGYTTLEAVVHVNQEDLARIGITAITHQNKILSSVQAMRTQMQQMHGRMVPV
T4 sequence (P53779 whole entry): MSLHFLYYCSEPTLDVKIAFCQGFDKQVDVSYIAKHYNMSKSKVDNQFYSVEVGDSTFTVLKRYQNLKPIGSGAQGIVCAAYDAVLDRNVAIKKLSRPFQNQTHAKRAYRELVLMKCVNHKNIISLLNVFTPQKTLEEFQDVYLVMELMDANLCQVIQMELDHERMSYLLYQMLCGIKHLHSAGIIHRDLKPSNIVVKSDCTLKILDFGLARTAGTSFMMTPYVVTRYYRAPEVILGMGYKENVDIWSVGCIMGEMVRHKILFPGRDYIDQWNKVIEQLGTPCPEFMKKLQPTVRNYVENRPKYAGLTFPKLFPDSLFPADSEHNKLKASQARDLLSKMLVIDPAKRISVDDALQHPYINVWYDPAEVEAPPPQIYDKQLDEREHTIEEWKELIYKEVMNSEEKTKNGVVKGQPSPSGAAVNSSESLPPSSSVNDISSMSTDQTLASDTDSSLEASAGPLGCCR
T6 sequence (Q6XUX3 whole entry): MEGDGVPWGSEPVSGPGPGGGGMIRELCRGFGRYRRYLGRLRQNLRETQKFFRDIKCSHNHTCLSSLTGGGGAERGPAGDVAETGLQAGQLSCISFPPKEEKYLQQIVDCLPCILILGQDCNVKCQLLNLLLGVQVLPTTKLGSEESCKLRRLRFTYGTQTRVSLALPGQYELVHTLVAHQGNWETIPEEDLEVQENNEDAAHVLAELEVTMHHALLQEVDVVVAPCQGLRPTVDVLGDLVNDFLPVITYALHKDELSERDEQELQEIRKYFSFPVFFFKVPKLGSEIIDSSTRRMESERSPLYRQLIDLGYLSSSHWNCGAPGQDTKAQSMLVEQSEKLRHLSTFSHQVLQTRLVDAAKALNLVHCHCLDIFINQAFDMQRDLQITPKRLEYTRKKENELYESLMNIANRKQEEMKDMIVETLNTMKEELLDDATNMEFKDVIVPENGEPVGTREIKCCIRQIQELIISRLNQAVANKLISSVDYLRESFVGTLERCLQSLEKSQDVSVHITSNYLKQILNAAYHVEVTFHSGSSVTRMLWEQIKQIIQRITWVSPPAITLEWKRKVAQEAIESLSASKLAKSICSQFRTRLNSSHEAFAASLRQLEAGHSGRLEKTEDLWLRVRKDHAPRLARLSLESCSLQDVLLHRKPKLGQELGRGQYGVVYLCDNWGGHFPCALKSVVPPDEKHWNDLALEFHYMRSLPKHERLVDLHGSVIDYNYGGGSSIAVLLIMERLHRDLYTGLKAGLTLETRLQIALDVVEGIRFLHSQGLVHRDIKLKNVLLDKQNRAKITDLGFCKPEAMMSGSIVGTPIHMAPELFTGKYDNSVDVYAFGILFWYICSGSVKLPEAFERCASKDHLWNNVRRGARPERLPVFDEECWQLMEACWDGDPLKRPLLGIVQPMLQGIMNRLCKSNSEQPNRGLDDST
CLK1, sequence (P49759 whole entry): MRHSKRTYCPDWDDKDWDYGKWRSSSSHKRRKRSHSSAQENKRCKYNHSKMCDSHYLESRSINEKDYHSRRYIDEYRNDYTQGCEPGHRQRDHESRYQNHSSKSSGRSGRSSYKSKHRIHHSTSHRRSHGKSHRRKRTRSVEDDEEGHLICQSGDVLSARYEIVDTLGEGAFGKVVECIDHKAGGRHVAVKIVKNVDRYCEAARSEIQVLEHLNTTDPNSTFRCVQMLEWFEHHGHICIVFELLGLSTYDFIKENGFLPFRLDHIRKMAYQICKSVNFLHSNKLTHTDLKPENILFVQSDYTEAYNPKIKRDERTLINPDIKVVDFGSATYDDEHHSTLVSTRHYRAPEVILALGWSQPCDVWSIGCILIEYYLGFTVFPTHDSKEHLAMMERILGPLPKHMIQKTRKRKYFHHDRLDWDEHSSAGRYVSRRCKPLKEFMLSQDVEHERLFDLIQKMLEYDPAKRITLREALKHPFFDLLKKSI
EPHA8, sequence (P29322 whole entry): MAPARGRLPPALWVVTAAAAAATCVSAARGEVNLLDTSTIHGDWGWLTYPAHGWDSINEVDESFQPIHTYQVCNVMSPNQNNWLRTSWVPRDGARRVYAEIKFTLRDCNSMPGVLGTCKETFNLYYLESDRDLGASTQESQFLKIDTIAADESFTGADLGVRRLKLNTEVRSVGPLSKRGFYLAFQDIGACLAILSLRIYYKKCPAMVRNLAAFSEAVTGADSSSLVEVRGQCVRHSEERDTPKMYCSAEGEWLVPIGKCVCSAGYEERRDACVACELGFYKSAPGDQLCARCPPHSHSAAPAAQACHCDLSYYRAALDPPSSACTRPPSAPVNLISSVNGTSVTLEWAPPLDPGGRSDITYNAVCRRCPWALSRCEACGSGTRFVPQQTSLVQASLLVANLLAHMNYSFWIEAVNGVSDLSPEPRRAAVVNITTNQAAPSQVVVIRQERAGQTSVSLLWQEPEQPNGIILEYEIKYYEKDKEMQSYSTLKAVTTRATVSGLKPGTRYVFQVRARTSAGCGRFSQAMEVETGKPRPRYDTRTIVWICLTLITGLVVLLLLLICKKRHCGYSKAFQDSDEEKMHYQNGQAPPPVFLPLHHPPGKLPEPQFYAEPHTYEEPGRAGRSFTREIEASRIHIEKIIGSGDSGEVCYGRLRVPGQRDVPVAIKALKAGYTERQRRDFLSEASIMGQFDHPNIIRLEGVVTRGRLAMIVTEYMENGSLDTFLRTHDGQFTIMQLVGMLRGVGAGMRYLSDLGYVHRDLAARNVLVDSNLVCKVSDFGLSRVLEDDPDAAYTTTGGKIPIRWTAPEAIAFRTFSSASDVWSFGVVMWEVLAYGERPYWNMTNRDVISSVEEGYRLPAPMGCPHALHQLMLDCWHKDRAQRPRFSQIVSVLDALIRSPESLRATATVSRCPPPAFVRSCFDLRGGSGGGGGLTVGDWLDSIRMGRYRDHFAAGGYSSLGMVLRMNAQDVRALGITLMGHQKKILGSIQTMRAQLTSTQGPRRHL

| SMILES | remaining binding at 10 µM (MARK3) [%] | remaining binding at 10 µM (CLK1) [%] | remaining binding at 10 µM (EPHB3) [%] | remaining binding at 10 µM [1] [%] | remaining binding at 10 µM (MRCKA) [%] | remaining binding at 10 µM (EPHA4) [%] | remaining binding at 10 µM (LATS2) [%] | remaining binding at 10 µM (PRKD3) [%] | remaining binding at 10 µM (STK33) [%] | remaining binding at 10 µM (MST4) [%] | remaining binding at 10 µM (JNK3) [%] | remaining binding at 10 µM (TAOK2) [%] | remaining binding at 10 µM (HIPK1) [%] | remaining binding at 10 µM (FLT3(ITD)) [%] | remaining binding at 10 µM [2] [%] | remaining binding at 10 µM (NEK3) [%] | remaining binding at 10 µM (RIPK5) [%] | remaining binding at 10 µM (EPHA8) [%] | remaining binding at 10 µM (PKNB(M.tuberculosis)) [%] | remaining binding at 10 µM (ALK) [%] | other results |
| --- | --- | --- | --- | --- | --- | --- | --- | --- | --- | --- | --- | --- | --- | --- | --- | --- | --- | --- | --- | --- | --- |
| COc1ccc(-c2cnccc2-c2cnc(NC(=O)C(C)C)s2)c(C(F)(F)F)c1 [CRT0105446, N-{5-[3-(4-Methoxy-2-trifluoromethyl-phenyl)-pyridin-4-yl]-hiazol-2-yl}-isobutyramide] | 78 | 85 | 83 | 72 | 77 | 100 | 90 | 98 | 100 | 61 | 36 | 76 | 100 | 79 | 59 | 100 | 86 | 100 | 82 | 89 | remaining binding at 10 µM (IKK-epsilon): 85%; remaining binding at 10 µM (BRK): 100%; remaining binding at 10 µM (TAOK3): 96% |
| Cc1ccc(-c2cnccc2-c2cnc(Nc3ccc(O)cc3)s2)c(Cl)c1 [CRT0105950, 4-{5-[3-(2-Chloro-4-methyl-phenyl)-pyridin-4-yl]-thiazol-2-ylamino}-phenol] | 51 | 0.4 | 96 | 25 | 84 | 94 | 6 | 11 | 100 | 37 | 25 | 21 | 65 | 4.4 | 0.4 | 88 | 45 | 88 | 19 | 20 | remaining binding at 10 µM (IKK-epsilon): 41%; remaining binding at 10 µM (BRK): 100%; remaining binding at 10 µM (TAOK3): 28% |

Reference: paper PMC4770715, “LIM kinase inhibitors disrupt mitotic microtubule organization and impair tumor cell proliferation” (Oncotarget, 2015)
